Patent US20260215431A1, “AN HERBICIDAL COMBINATION, COMPOSITION AND METHOD OF CONTROLLING WEEDS USING THE SAME” (priority 2023, published 2026)

Tests used:
[1] = tested on: Viola arvensis, Bromus spp., Lolium spp., Agropyron repens and Urtica urens; conditions: reported by Hoechst et al., 1991; cited from earlier work
Borreria verticillata = assay: Greenhouse post-emergence herbicidal efficacy on Borreria verticillata; format: in vivo; conditions: 14 DAA
Procedure: (§1) The expected efficacy of a combination of L-glufosinate ammonium and the other herbicides was calculated using the well-established Colby method. Any difference between the observed and “expected” efficacy could be attributed to synergy between the two compounds.
(§2) In the Colby method, the expected (or predicted) response of a combination of herbicides is calculated by taking the product of the observed response for each individual component of the combination when applied alone, divided by 100, and subtracting this value from the sum of the observed response for each component when applied alone. An unexpected enhancement in efficacy of the combination is then determined by comparing the observed response of the combination to the expected (or predicted) response as calculated from the observed response of each individual component alone. If the observed response of the combination is greater than the expected (or predicted) response, or stated conversely, if the difference between the observed and expected response is greater than zero, then the combination is said to be synergistic or unexpectedly effective (Colby, S. R., Weeds, 1967(15), p. 20-22). The Colby method requires only a single dose of each herbicide applied alone and the mixture of both doses. The formula used to calculate the expected efficacy (EE) which was compared with the observed efficacy (OE) to determine the efficacy of the present disclosure is explained hereinbelow:
(§3) The expected efficacy for a combination of two active ingredients is as follows:
(§4) The expected efficacy for a combination of three active ingredients is as follows:
(§5) [formula] • wherein, • A=Observed efficacy of active ingredient A at the same concentration as used in the mixture. • B=Observed efficacy of the active ingredient B at the same concentration as used in the mixture. • C=Observed efficacy of the active ingredient C at the same concentration as used in the mixture.
(§6) Greenhouse trials were conducted to evaluate the efficacy of the combination of L-glufosinate ammonium and metribuzin, L-glufosinate ammonium and metribuzin+sulfentrazone and L-glufosinate ammonium and metribuzin+oxyfluorfen—on weeds Borreria verticillate, Euphorbia heterophylla.
(§7) The soil used was sandy clay loam—sand: 68.0%; silt: 8.0%; clay: 24.0%.
(§8) All treatments were in 4 replications per treatment with a spray volume of 150 L/ha.
The percentage efficacy was calculated at 14 days after application (DAA). The target weed was Borreria verticillata, and the concentration of the herbicide and the results are recorded in Table 1.
The percentage efficacy was calculated at 14 DAA. The target weed was Borreria verticillata, and the concentration of the herbicides and the results are recorded in the Table 3.
The percentage efficacy was calculated at 14 DAA. The target weed was Borreria verticillata, and the concentration of the herbicides and the results are recorded in Table 5.

Euphorbia heterophylla = assay: Greenhouse post-emergence herbicidal efficacy on Euphorbia heterophylla; format: in vivo
Procedure: as §1, §2, §3, §4, §5, §6, §7, §8
The percentage efficacy was calculated at 7, 14 and 21 DAA. The target weed was Euphorbia heterophylla, and the concentration of the herbicide and the results are recorded in Table 2.
The percentage efficacy was calculated at 14, 21 and 28 DAA. The target weed was Euphorbia heterophylla, and the concentration of the herbicides and the results are recorded in Table 4.
The percentage efficacy was calculated at 14 and 21 DAA. The target weed was Euphorbia heterophylla, and the concentration of the herbicides and the results are recorded in Table 6.

SMILES: CP(=O)(O)CCC(N)C(=O)O (racemic) [glufosinate, DL-homoalanin-4-yl(methyl)phosphinic acid]
- Control of weed species by glufosinate [1]: either not combated, or only weakly combated

SMILES: CP(=O)(O)CC[C@H](N)C(=O)O.N [L-glufosinate ammonium, ammonium (2S)-2-amino-4-(methylphosphinato)butyric acid]
- Observed efficacy (%) of L-glufosinate ammonium (150 g a.i./ha) (Borreria verticillata; Table 1): 80%
- Observed efficacy (%) of L-glufosinate ammonium (150 g a.i./ha) (Borreria verticillata; Table 3): 80%
- Observed efficacy (%) of L-glufosinate ammonium (150 g a.i./ha) (Borreria verticillata; Table 5): 80%
- Observed efficacy (%) of L-glufosinate ammonium (150 g a.i./ha) (Euphorbia heterophylla; Table 2, 7 DAA): 95%
- Observed efficacy (%) of L-glufosinate ammonium (150 g a.i./ha) (Euphorbia heterophylla; Table 2, 14 DAA): 85%
- Observed efficacy (%) of L-glufosinate ammonium (150 g a.i./ha) (Euphorbia heterophylla; Table 2, 21 DAA): 70%
- Observed efficacy (%) of L-glufosinate ammonium (150 g a.i./ha) (Euphorbia heterophylla; Table 4, 14 DAA): 88%
- Observed efficacy (%) of L-glufosinate ammonium (150 g a.i./ha) (Euphorbia heterophylla; Table 4, 21 DAA): 85%
- Observed efficacy (%) of L-glufosinate ammonium (150 g a.i./ha) (Euphorbia heterophylla; Table 4, 28 DAA): 85%
- Observed efficacy (%) of L-glufosinate ammonium (150 g a.i./ha) (Euphorbia heterophylla; Table 6, 14 DAA): 85%
- Observed efficacy (%) of L-glufosinate ammonium (150 g a.i./ha) (Euphorbia heterophylla; Table 6, 21 DAA): 70%

SMILES: CSc1nnc(C(C)(C)C)c(=O)n1N [Metribuzin]
- Observed efficacy (%) of metribuzin (252 g a.i./ha) (Borreria verticillata; Table 1): 30%
- Observed efficacy (%) of metribuzin (252 g a.i./ha) (Borreria verticillata; Table 3): 30%
- Observed efficacy (%) of metribuzin (252 g a.i./ha) (Borreria verticillata; Table 5): 55%
- Observed efficacy (%) of metribuzin (252 g a.i./ha) (Euphorbia heterophylla; Table 2, 7 DAA): 35%
- Observed efficacy (%) of metribuzin (252 g a.i./ha) (Euphorbia heterophylla; Table 2, 14 DAA): 25%
- Observed efficacy (%) of metribuzin (252 g a.i./ha) (Euphorbia heterophylla; Table 2, 21 DAA): 15%
- Observed efficacy (%) of metribuzin (252 g a.i./ha) (Euphorbia heterophylla; Table 4, 14 DAA): 30%
- Observed efficacy (%) of metribuzin (252 g a.i./ha) (Euphorbia heterophylla; Table 4, 21 DAA): 20%
- Observed efficacy (%) of metribuzin (252 g a.i./ha) (Euphorbia heterophylla; Table 4, 28 DAA): 10%
- Observed efficacy (%) of metribuzin (252 g a.i./ha) (Euphorbia heterophylla; Table 6, 14 DAA): 85%
- Observed efficacy (%) of metribuzin (252 g a.i./ha) (Euphorbia heterophylla; Table 6, 21 DAA): 85%

SMILES: CCOc1cc(Oc2ccc(C(F)(F)F)cc2Cl)ccc1[N+](=O)[O-] [Oxyfluorfen]
- Observed efficacy (%) of oxyfluorfen (430 g a.i./ha) (Borreria verticillata; Table 3, 430 g a.i./ha): 70%
- Observed efficacy (%) of oxyfluorfen (430 g a.i./ha) (Euphorbia heterophylla; Table 4, 14 DAA): 65%
- Observed efficacy (%) of oxyfluorfen (430 g a.i./ha) (Euphorbia heterophylla; Table 4, 21 DAA): 50%
- Observed efficacy (%) of oxyfluorfen (430 g a.i./ha) (Euphorbia heterophylla; Table 4, 28 DAA): 40%

SMILES: Cc1nn(-c2cc(NS(C)(=O)=O)c(Cl)cc2Cl)c(=O)n1C(F)F [Sulfentrazone]
- Observed efficacy (%) of sulfentrazone (300 g a.i./ha) (Borreria verticillata; Table 5, 300 g a.i./ha): 30%
- Observed efficacy (%) of sulfentrazone (300 g a.i./ha) (Euphorbia heterophylla; Table 6, 14 DAA): 25%
- Observed efficacy (%) of sulfentrazone (300 g a.i./ha) (Euphorbia heterophylla; Table 6, 21 DAA): 15%
